Reference: patent US20260297060A1, “COMPOUNDS FOR THE DEGRADATION OF MUTANT BRAF” (C4 THERAPEUTICS, INC., priority 2023, published 2026)
Like-named read-outs stand apart in the source and are kept apart here.

Key:
[1] = test system: A375 human melanoma xenografts; assay: Example 9 efficacy study Part II in A375 human melanoma xenografts (tumor volume, T/C, TGI); assay type: in vivo, BALB/c nude mice; conditions: 10 mg/kg, p.o., BID × 14 days; for Tumor Size on PG-D14: Mean ± SEM; for TGI (Tumor Growth Inhibition): PG-D14; for T/C: PG-D14, treated/control average tumor volume
Experimental: For efficacy study Part II, agents were tested in the A375 human melanoma xenografts model. Compound 133, Compound 144 and Compound 198 were administered to BALB/c nude mice bearing A375 xenografts from day 0 and dosed twice a day (BID) for 14 days. Compound 133, Compound 144 and Compound 198 were dosed at 10 mg/kg via p.o..
The A375 tumor cells were maintained in vitro in DMEM medium supplemented with […] and 1% Penicillin-Streptomycin at 37° C. in an atmosphere of 5% CO2 in air. The tumor cells were routinely subcultured twice weekly. The cells growing in an exponential growth phase were harvested and counted for tumor inoculation.
Each mouse was inoculated subcutaneously at the right flank with A375 cells (5×10^6) in 0.2 mL of PBS supplemented with Matrigel (PBS: Matrigel=1:1) for tumor development. Animals were grouped for the treatment when the average tumor volume reached 243 mm^3 for efficacy study part I and 413 mm^3 for the PK and PD study part I on day 15, and 271 mm^3 for efficacy part II and 443 mm^3 for the PK and PD part II on day 18, and 463 mm^3 for the PK and PD study part III on day 21. The test articles administration and the animal numbers in each group are shown in the above experimental tables.
Prior to the onset of drug treatment, mice were measured for tumor size in two dimensions using a caliper, and the tumor volume (mm^3) was calculated using formula V=0.5 a×b^2 where a and b are the long and short diameters of the tumor in mm, respectively. Mice were randomized into different treatment groups based on the tumor volume.
The major endpoint was to see if the tumor growth could be delayed or mice could be cured. The tumor size was then used for calculations of T/C value. The T/C value (in percent) is an indication of antitumor effectiveness; T and C are the mean volumes of the treated and control groups, respectively on specified day.
TGI was calculated for each group using the formula: TGI (%)=[1−(Ti−T0)/(Ci−C0)]×100; Ti is the average tumor volume of a treatment group on a given day, To is the average tumor volume of the treatment group on the day of treatment start, Ci is the average tumor volume of the vehicle control group on the same day with Ti, and C0 is the average tumor volume of the vehicle group on the day of treatment start.

A375 tumors = assay: In vivo efficacy, A375 xenograft tumor volume (Example 7); set-up: species or system human A375 melanoma xenograft in female BALB/c nude mice; conditions: oral, FIG. 14
Experimental: FIG. 14 is a line graph showing in vivo efficacy of dabrafenib, Compound 141, Compound 118, Compound 156, and Compound 180 in the treatment of female BALB/c nude mice bearing A375 tumors. Mice were treated with vehicle (10 μL/g, p.o., BID), dabrafenib (100 mg/kg, p.o., QD), Compound 141 (10 mg/kg, p.o., QD), Compound 141 (10 mg/kg, p.o., BID), Compound 118 (10 mg/kg, p.o., BID), Compound 156 (10 mg/kg, p.o., BID), or Compound 180 (10 mg/kg, p.o., BID) by oral gavage (p.o.). Data points represent group mean change in tumor volume. Error bars represent standard error of the mean (SEM). The x-axis is the time measured in days and the y-axis is A375 tumor volume measured in mm^3. The experiment was conducted as described in Example 7.

[2] = Example 7 pharmacokinetics assay for PKPD study (plasma, tumor, liver); assay type: in vivo, BALB/c nude mice; conditions: mouse, po, 10 mg/kg, p.o., single dose
Experimental: For the PK and PD study, agents were administered to BALB/c nude mice bearing A375 human melanoma xenografts tumors. Dabrafenib, Compound 141, Compound 118, Compound 156, and Compound 180 were dosed p.o. once on day 1. Known BRAF inhibitor Dabrafenib was used as a positive control. Dabrafenib was dosed at 100 mg/kg. Compound 141, Compound 118, Compound 156, and Compound 180 were dosed at 10 mg/kg.
The plasma samples were collected at predetermined time points for PK analysis. The mice were euthanized at predetermined time points post the treatment. The blood samples were collected into the 1.5 mL Eppendorf tubes containing 15 μL of 0.5 M EDTA-K2. And then the anticoagulant blood samples were centrifuged at 2,500 g at 4° C. for 15 minutes. The plasma samples were separated into 2 aliquots. The 1st was used for PK analysis, and the 2nd served as backup. The samples were stored at −80° C. before bioanalysis.
The tumor samples were collected at predetermined time points for PK and WB analysis. The tumor was dissected out and split into 3 parts. The 1st part was used for PK analysis, the 2nd part was used for WB analysis and the last one served as backup for study. The samples were transferred into pre-labeled tubes and quickly froze in liquid nitrogen within 2 minutes after dissection. The samples were stored at −80° C. before bioanalysis.
Liver samples were collected at predetermined time points for PK analysis. The left lobe of the liver was dissected out and split into 2 parts. The 1st part was used for PK analysis and the 2nd part served as the backup for the study. The samples were transferred into pre-labeled tubes and quickly froze in liquid nitrogen within 2 minutes after dissection. The samples were stored at −80° C. before bioanalysis.
The harvested plasma and liver samples were processed for pharmacokinetics analysis by LC-MS/MS with a concentration range of 0.500-1000 ng/mL for Dabrafenib, Compound 118 and Compound 180 in plasma, 0.100~200 ng/ml for Dabrafenib in Liver and tumor homogenate, 50.0~50,000 ng/mL for Compound 141 in plasma and Liver homogenate, 1.00-1000 ng/ml for Compound 141 in tumor homogenate, 2.00~2000 ng/mL for Compound 118 and Compound 180 in Liver and 0.200~200 ng/ml in tumor homogenate, 1.00~2000 ng/mL for Compound 156 in plasma, 0.500-1000 ng/ml in liver and 0.500-1,000 ng/ml in tumor homogenate.

[3] = liver, read-out: Concentration in Liver (mean ± SEM)
[4] = plasma, read-out: Concentration in Plasma (mean ± SEM)
[5] = tumor, read-out: Concentration in Tumor (mean ± SEM)

Row | Compound | Tumor Volume Trace Over Time ([1]; Day 0, Mean ± SEM) [mm^3] | Tumor Volume Trace Over Time ([1]; Day 4, Mean ± SEM) [mm^3] | Tumor Volume Trace Over Time ([1]; Day 7, Mean ± SEM) [mm^3] | Tumor Volume Trace Over Time ([1]; Day 11, Mean ± SEM) [mm^3] | Tumor Volume Trace Over Time ([1]; Day 14, Mean ± SEM) [mm^3] | Tumor Size on PG-D14 [1] [mm^3] | TGI (Tumor Growth Inhibition) [1] [%] | T/C [1] [%] | tumor regressions in the xenograft model (A375 tumors; 10 mg/kg BID, A375 xenografts) | antitumor response compared with comparators dabrafenib or encorafenib (A375 tumors; A375 human melanoma xenografts) | concentration at 6 h [2, 3] [ng/g] | concentration at 12 h [2, 3] [ng/g] | concentration at 1 h [2, 4] [ng/mL] | concentration at 6 h [2, 4] [ng/mL] | concentration at 12 h [2, 4] [ng/mL] | concentration at 24 h [2, 4] [ng/mL] | concentration at 1 h [2, 5] [ng/g] | concentration at 6 h [2, 5] [ng/g] | concentration at 12 h [2, 5] [ng/g] | concentration at 24 h [2, 5] [ng/g]
1 | CCN(C)S(=O)(=O)Nc1ccc(F)c(Oc2ccc3ncn(C4CC5(CCN(C6CC7(CCN(c8cc9c(cc8F)c(N8CCC(=O)NC8=O)nn9C)CC7)C6)CC5)C4)c(=O)c3c2)c1C#N (stereo not drawn) [Compound 198, 6-[2-cyano-3-[[ethyl(methyl)sulfamoyl]amino]-6-fluoro-phenoxy]-3-[7-[7-[3-(2,4-dioxohexahydropyrimidin-1-yl)-5-fluoro-1-methyl-indazol-6-yl]-7-azaspiro[3.5]nonan-2-yl]-7-azaspiro[3.5]nonan-2-yl]-4-oxo-quinazoline] | 271 | 192 | 93 | 60 | 58 | 58 ± 13 | 122.45 | 4.79 |  |  |  |  |  |  |  |  |  |  |  | 
2 | CO[C@@H]1CCN(S(=O)(=O)Nc2ccc(F)c(Oc3ccc4ncn([C@H]5COC6(CCN(C7CC8(C7)CN(c7cc9c(cc7F)c(N7CCC(=O)NC7=O)nn9C)C8)CC6)C5)c(=O)c4c3)c2C#N)C1 [Compound 144, (3R)-N-[2-cyano-3-[3-[(3R)-8-[2-[3-(2,4-dioxohexahydropyrimidin-1-yl)-5-fluoro-1-methyl-indazol-6-yl]-2-azaspiro[3.3]heptan-6-yl]-1-oxa-8-azaspiro[4.5]decan-3-yl]-4-oxo-quinazolin-6-yl]oxy-4-fluoro-phenyl]-3-methoxy-pyrrolidine-1-sulfonamide] | 271 | 167 | 79 | 51 | 28 | 28 ± 5 | 125.70 | 2.27 |  |  |  |  |  |  |  |  |  |  |  | 
3 | CCN(C)S(=O)(=O)Nc1ccc(F)c(Oc2ccc3ncc(C4CC5(CCN(C6CCC(c7cc8c(cc7F)c(N7CCC(=O)NC7=O)nn8C)CC6)CC5)C4)nc3c2)c1C#N (single isomer, unassigned) [Compound 180, 7-[2-cyano-3-[[ethyl(methyl)sulfamoyl]amino]-6-fluoro-phenoxy]-2-[7-[4-[3-(2,4-dioxohexahydropyrimidin-1-yl)-5-fluoro-1-methyl-indazol-6-yl]cyclohexyl]-7-azaspiro[3.5]nonan-2-yl]quinoxaline] |  |  |  |  |  |  |  |  | profound tumor regressions | more robust antitumor response | 712 ± 282 | 247 ± 33.7 | 5110 ± 867 | 260 ± 84.3 | 155 ± 27.8 | 1.54 ± 0.588 | 680 ± 72.8 | 245 ± 34.7 | 82.6 ± 21.8 | 3.89
4 | Cn1nc(N2CCC(=O)NC2=O)c2cc(F)c(N3CC4(CC(N5CCC6(CC5)C[C@@H](n5cnc7ccc(Oc8c(F)ccc(NS(=O)(=O)N9CC[C@@H](F)C9)c8C#N)cc7c5=O)CO6)C4)C3)cc21 [Compound 133, (3R)-N-[2-cyano-3-[3-[(3R)-8-[2-[3-(2,4-dioxohexahydropyrimidin-1-yl)-5-fluoro-1-methyl-indazol-6-yl]-2-azaspiro[3.3]heptan-6-yl]-1-oxa-8-azaspiro[4.5]decan-3-yl]-4-oxo-quinazolin-6-yl]oxy-4-fluoro-phenyl]-3-fluoro-pyrrolidine-1-sulfonamide] | 271 | 193 | 99 | 71 | 32 | 32 ± 7 | 125.20 | 2.65 |  |  |  |  |  |  |  |  |  |  |  | 
